These are literature values, as cited in patent EP0225997A2, “Use of urea derivatives for preparing a pharmaceutical composition for the treatment of a virus-induced disease” (Die Deutsches Primatenzentrum GmbH, priority 1985, dated 1987).

This data set relates to HTLV-III. As to conditions: Mitsuya et al. Science, 226 page 172-174, 1984.

As for `Cc1ccc(C(=O)Nc2ccc(S(=O)(=O)O)c3cc(S(=O)(=O)O)cc(S(=O)(=O)O)c23)cc1NC(=O)c1cccc(NC(=O)Nc2cccc(C(=O)Nc3cc(C(=O)Nc4ccc(S(=O)(=O)O)c5cc(S(=O)(=O)O)cc(S(=O)(=O)O)c45)ccc3C)c2)c1` [suramin], the “HTLV-III replications in culture” value is listed as “reduce HTLV-III replications in culture”.
